Experimental data taken from publication PMC3626250, “Effects of Borneol on Pharmacokinetics and Tissue Distribution of Notoginsenoside R1 and Ginsenosides Rg1 and Re in Panax notoginseng in Rabbits” (Journal of Analytical Methods in Chemistry, 2013).
Like-named read-outs stand apart in the source and are kept apart here.

Assays:
[1] = Stability in plasma samples and tissue homogenates of rabbits; assay type: physicochemical; details: kidney homogenate
Method: The precision of the assay was determined for the quality control (QC) plasma and tissue […] Intraday precision and accuracy were determined via repeated analysis of the QC plasma and tissue samples within one day (n = 5). Interday precision and accuracy were determined via repeated analysis on five consecutive days. The concentration of each sample was determined using the prepared calibration curve and analyzed on the same day. All stabilities were evaluated at different concentration levels. Short-term stability of NGR1, GRg1, and GRe were assessed by analyzing QC samples kept at 4°C for 4–24 h. Freeze-thaw stability was evaluated at three consecutive freeze-thaw cycles. Long-term stability was studied by analyzing samples during a period of 8 weeks of storage at −70°C.
The stability studies were performed by evaluating small variations in three different conditions.

Caco-2 cells = assay: MTT cytotoxicity assay toward Caco-2 cells; assay type: cell-based; details: chosen for transport study
Method: The Caco-2 cells were cultured in Dulbecco's modified Eagle's medium (DMEM) supplemented with 20% foetal bovine serum, 1% nonessential amino acids and penicillin-streptomycin, at 37°C in an atmosphere with a relative humidity of 95% and a CO2 flow of 5%. Medium was replaced every 2-3 days. When the cell monolayer reached 80% confluence, the cells were detached with a solution of 0.02% EDTA and 0.25% trypsin. The vinblastine-selected Caco-2 cells were cultivated in the presence of 10 nM vinblastine to induce P-glycoprotein (P-gp) expression. The culture medium was changed to a fresh medium without vinblastine 24 h before experiments, and the cells were used between passages 25 and 46. Prior to the transport study, cytotoxicity of NGR1, GRg1, GRe, and Borneol toward Caco-2 cells was determined using MTT assays. Noncytotoxic concentrations of 500 μM NGR1, GRg1, GRe, and 200 μM Borneol (dissolved in DMSO) were chosen for transport study.

[2] = Transport studies across Caco-2 monolayers (P app, efflux ratio); assay type: in vitro ADME; details: human
Method: (§1) Medium was replaced every 2-3 days. […] The vinblastine-selected Caco-2 cells were cultivated in the presence of 10 nM vinblastine to induce P-glycoprotein (P-gp) expression. […] Prior to the transport study, cytotoxicity of NGR1, GRg1, GRe, and Borneol toward Caco-2 cells was determined using MTT assays.
(§2) In transport studies, vinblastine-selected Caco-2 cells were seeded on polycarbonate filter of transwells for 18–21 days before starting transport study, and the monolayers with the transepithelial electrical resistance (TEER) values greater than 300 Ωcm^2 were used. Caco-2 monolayers were rinsed twice with Hanks' balanced salt solution (HBSS) and preincubated in HBSS at 37°C for 30 min before starting experiments. To start the experiments, 500 μM of NGR1, GRg1, and GRe in final concentrations were added to the donor side with or without 200 μM Borneol and then incubated at 37°C. […] After each sampling, 0.1 mL of HBSS was added to the receiver chamber to maintain a constant volume. All the experiments were performed five times in duplicate. The collected samples were stored at −20°C until HPLC analysis. During the above transport studies, the TEER values were also monitored before and at the end of each experiment. Apparent permeability coefficients (P app) were then calculated according to the following equation: (1) Papp=(dC/dt×V)/(A×C0), where dC/dt is the rate of the test compound appearing in the receiver chamber, V is the volume of the solution in the receiver chamber, A is the cell monolayer surface area, and C 0 is the initial concentration of the test compound added in the donor chamber.
(§3) The efflux ratio (Er) was calculated using the following equation: (2) Er=Papp(basolateral-apical)/Papp(apical-basolateral).

[3] = test system: vinblastine-selected Caco-2 cells; assay: as above; assay type: in vitro ADME
Method: as §1, §2, §3

CC(C)=CCC[C@](C)(O[C@@H]1O[C@H](CO)[C@@H](O)[C@H](O)[C@H]1O)[C@H]1CC[C@]2(C)[C@@H]1[C@H](O)C[C@@H]1[C@@]3(C)CC[C@H](O)C(C)(C)[C@@H]3[C@@H](O[C@@H]3O[C@H](CO)[C@@H](O)[C@H](O)[C@H]3O)C[C@]12C [GRg1, ginsenoside Rg1]
Remaining, Short-term stability ([1]; QC 0.4 μg·mL^−1, 4°C for 4–24 h): 91.5 ± 6.5% | Remaining, Long-term stability ([1]; QC 0.4 μg·mL^−1, 8 weeks at −70°C): 90.8 ± 6.1% | Remaining, Freeze-thaw stability ([1]; QC 0.4 μg·mL^−1, three freeze-thaw cycles): 90.5 ± 7.8% | Remaining, Short-term stability ([1]; QC 3.0 μg·mL^−1, 4°C for 4–24 h): 95.9 ± 4.5% | Remaining, Long-term stability ([1]; QC 3.0 μg·mL^−1, 8 weeks at −70°C): 91.6 ± 11.2% | Remaining, Freeze-thaw stability ([1]; QC 3.0 μg·mL^−1, three freeze-thaw cycles): 94.7 ± 3.7% | Remaining, Short-term stability ([1]; QC 40.0 μg·mL^−1, 4°C for 4–24 h): 102.1 ± 5.7% | Remaining, Long-term stability ([1]; QC 40.0 μg·mL^−1, 8 weeks at −70°C): 95.7 ± 4.6% | Remaining, Freeze-thaw stability ([1]; QC 40.0 μg·mL^−1, three freeze-thaw cycles): 91.2 ± 10.6% | Noncytotoxic concentration (Caco-2 cells): 500 µM | efflux ratio at 120 min, 500 μM ([2]; Caco-2, Caco-2 monolayers, read-out: efflux ratios (Er)): 1 to 1.1 | efflux ratio at 120 min, 500 μM ([2]; Caco-2, efflux ratio P app(basolateral-apical)/P app(apical-basolateral), with or without 200 μM Borneol (see label), read-out: E r): 1.05 | Papp A→B at 120 min, 500 μM ([2]; Caco-2 Model, 500 μM compound, with or without 200 μM Borneol (see label), read-out: P app (apical to basolateral)): 0.348 ± 0.042 ×10⁻⁶ cm/s | Papp B→A at 120 min, 500 μM ([2]; Caco-2 Model, 500 μM compound, with or without 200 μM Borneol (see label), read-out: P app (basolateral to apical)): 0.364 ± 0.029 ×10⁻⁶ cm/s | increase of P app (apical-to-basolateral) by Borneol ([3]; 200 μM Borneol, Caco-2): 2.6 fold | increase of P app (basolateral-to-apical) by Borneol ([3]; 200 μM Borneol, Caco-2): 2.6 fold | P app values ([3]; Caco-2 monolayers, without Borneol): less than 10^−6 cm/s | substrate of P-gp ([3]; concluded from efflux ratio in vinblastine-selected Caco-2 cells): seemed not to be substrates of P-gp
